From US20040175737A1, “Assay for RNase H activity” (Wyeth, priority 2002, published 2004)

Target: T1, HIV RT RNase H (Human immunodeficiency virus type 1 group M subtype B, UniProt P04585)
T1 construct: HIV p66/p51 heterodimer; purchased Enzyco, Inc. (Replidyne Inc., Louisville Colo.)
Test: PAGE-based endpoint assay for HIV RT RNase H activity, titrated with single stranded RNA or DNA contaminants
Assay type: biochemical
Details: 5, 10 and 50 pmol RNA; molar ratios to RNA-DNA hybrid substrate 1:1, 2:1 and 10:1; 1 U HIV RT enzyme; 37° C.
Description: RNase H. Samples of HIV p66/p51 heterodimer were obtained from Enzyco, Inc. (Replidyne Inc., Louisville Colo.) Methods for the recombinant expression, purification and characterization of this enzyme have been previously described (Thimmig & McHenry, J. Biol. Chem. 1993, 268:16528-16536). Purity of the enzyme samples was verified on polyacrylamide gels. […] Samples of E. coli RNase H1 were purchased from EPICENTR (Madison, Wis.).
Radiolabled RNA was generated by incorporating ^33P-ATP in the T7 RNA polymerase reaction, and annealed to an unlabeled ssDNA 49mer having the nucleotide sequence set forth in SEQ ID NO:2 (shown below). In an alternative version of these experiments, the complementary DNA oligonucleotide (SEQ ID NO:2) was radiolabeled with ^33P at the 5′ end by T4 PNK, and annealed to the unlabeled 29mer ssRNA (SEQ ID NO: 1).
Time dependent RNA degradation by RNase H. Aliquots containing 0.5 pmol of the radio-labeled DNA-RNA substrate ([…]) were incubated in Tris buffer (pH 8) with 10 mM MgCl2, KCl (between 0 and 30 mM), 3% glycerol, 0.2% NP-40, 50 μg/ml BSA and 1 mM DTT. […] The reaction products were analyzed by PAGE. […]

| Substance | inhibition of HIV RT RNase H activity (measured amount of end-labeled ssDNA after reaction) |
| --- | --- |
| homopolymeric A: homopolymeric polyA, 5′-(A)n-3′, n ≈ 500 to 1000, SEQ ID NO:3 | did not inhibit |
| homopolymeric U: homopolymeric polyU, 5′-(U)n-3′, n ≈ 500 to 1000, SEQ ID NO:4 | did not inhibit |
